According to patent publication US20120059020A1, “PROPHYLACTIC OR THERAPEUTIC AGENT FOR PULMONARY FIBROSIS” (SHIZUOKA COFFEIN CO., LTD, priority 2009, published 2012):

Experiments:
Solubility test in water = type: physicochemical
Protocol: Solubility test on a 2Na salt of a typical compound (1) (disodium salt of [5-[[6-[4-phenyl-6-(phenylmethoxy)-2-pyrimidinyl]-2-naphthalenyl]oxy]pentyl]propanedioic acid) used in the present invention in water is shown below.
Water of 20±2° C. was added to the 2Na salt of the compound (1), and the mixture was vigorously shaken for 30 seconds and left standing for 5 minutes. This operation was repeated until the 2Na salt of the compound (1) was completely dissolved. The final amount of water required for the dissolution was determined. The solubility of the 2Na salt of the compound (1) in water of 45±5° C. was determined by similar operation.

[1] = Stability test in aqueous solution (HPLC assay); type: physicochemical; details: for Purity: aqueous solution 1 g/100 mL, 35° C.
Protocol: Stability test on the 2Na salt of the compound (1) used in the present invention in an aqueous solution is shown below.
Injectable distilled water was added to 1 g of the 2Na salt of the compound (1) to prepare 100 mL of a sample solution. The sample solution was equally divided. One portion was shielded against light, and the other portion was unshielded. Each of them was stored at 35° C. for 11 days during which these sample solutions were assayed over time using high-performance liquid chromatography and examined for stability.
YMC-Pack ODS-A A-302 (YMC Co., Ltd.) was used as a column, and the column temperature was kept at a constant temperature around 40° C. A tetrahydrofuran/0.1% phosphoric acid (54:46) mixed solution was used as a mobile phase. A flow rate was adjusted such that the retention time of the compound (1) was approximately 7 minutes. An ultraviolet absorptiometer (measurement wavelength: 265 nm) was used as a detector.

[2] = test system: mouse models with bleomycin-induced pulmonary fibrosis; assay: In vivo effect on pulmonary fibrosis induced by bleomycin; set-up: species or system C57BL/6 mice
From the text: The present inventors conducted a test using mouse models with pulmonary fibrosis induced by transtracheally administering bleomycin, for the purpose of studying the antifibrotic action of the propanedioic acid derivative of the present invention in vivo. This experimental model of pulmonary fibrosis is clinically similar to idiopathic pulmonary fibrosis in pathological observations such as increased inflammatory cells and the increased amount of hydroxyproline in an extracellular matrix-constituting collagen ingredient used as an index for fibrosis, and is widely used.
C57BL/6 mice (female, 12 week old, body weight: 20 to 23 g) were anesthetized by the intraperitoneal administration of pentobarbital. The trachea was incised, and bleomycin (NIPPON KAYAKU CO., LTD.) (1.5 mg/kg) dissolved in saline was transtracheally administered thereto. […]
20 days after bleomycin administration, a bronchoalveolar lavage fluid (BALF) was collected from each mouse, and a PAI-1 concentration (ng/mL) in the fluid was measured using an ELISA kit (Mouse PAI-1 ELISA kit, Innovative research Inc.). Subsequently, the amount of hydroxyproline was measured for pulmonary fibrosis evaluation. The amount of hydroxyproline in the lung tissue was measured as the amount in a lung tissue hydrolysate according to the method of Kivirikko et al. (Anal. Biochem. 19, 249-255 (1967)). […]

Structure (SMILES): O=C([O-])C(CCCCCOc1ccc2cc(-c3nc(OCc4ccccc4)cc(-c4ccccc4)n3)ccc2c1)C(=O)[O-].[Na+].[Na+] [2Na salt of compound (1), disodium salt of [5-[[6-[4-phenyl-6-(phenylmethoxy)-2-pyrimidinyl]-2-naphthalenyl]oxy]pentyl]propanedioic acid]
- Amount of solvent required for dissolving 1 g (Solubility test in water; Water (20 ± 2° C.)): 33 mL
- Amount of solvent required for dissolving 1 g (Solubility test in water; Water (45 ± 5° C.)): 1.2 mL
- Solubility in water (Solubility test in water; water): excellent in solubility in water
- Stability of aqueous solution ([1]; 35° C. for 11 days, light-shielded or unshielded): stable
- Purity ([1]; light-shielded, 0 days elapsed): 99.8%
- Purity ([1]; light-shielded, 1 day elapsed): 99.8%
- Purity ([1]; light-shielded, 6 days elapsed): 99.8%
- Purity ([1]; light-shielded, 11 days elapsed): 99.8%
- Purity ([1]; unshielded, 0 days elapsed): 99.8%
- Purity ([1]; unshielded, 1 day elapsed): 99.8%
- Purity ([1]; unshielded, 6 days elapsed): 99.7%
- Purity ([1]; unshielded, 11 days elapsed): 99.7%
- Fibrotic process of the lung induced by bleomycin ([2]; 1000 ppm in drinking water, free feeding, mice, listed as 2Na salt of the compound (1)): remarkable effectiveness that suppressed the fibrotic process of the lung
- Amount of hydroxyproline in lung tissue compared with the control group ([2]; group 2 (late stage): 1000 ppm in drinking water from 8 to 20 days after bleomycin (fibrotic stage), approx. 20 mg/kg/day, measured 20 days after bleomycin): significantly decreased
